Read-outs that look alike come from different tables or passages of the source.
What was measured:
CRP = settings: literature 1990-2012, ACR abstracts 2006-2013; cited from earlier work
SAA = settings: literature 1990-2012, ACR abstracts 2006-2013; cited from earlier work
[1] = test system: Rheumatoid arthritis patients; experiment: VECTRA DA test: serum levels of biomarkers, % elevation over control (InFoRM study); format: in vivo, human
Text: (§1) VECTRA® DA test is a multi-biomarker disease activity (MBDA) blood test sold by Crescendo Bioscience. The test provides a quantitative assessment of rheumatoid arthritis disease activity in patients by using twelve protein biomarkers—Vascular Cell Adhesion Molecule 1 (VCAM-1), Epidermal Growth Factor (EGF), Vascular Endothelial Growth Factor A (VEGF-A), Interleukin-6 (IL-6), Tumor Necrosis Factor Receptor Type 1 (TNFR1), Matrix Metalloproteinase-1 (MMP-1), Matrix Metalloproteinase-3 (MMP-3), YKL-40, Leptin, Resistin, Serum Amyloid A (SAA), and C-Reactive Protein (CRP). The twelve biomarkers in VECTRA® DA test are relevant to key aspects of the pathophysiology of RA. Li et al., Curr. Med. Res. & Opin. 29(1): 85-92 (2013). The test measures the concentrations of the biomarkers and provides the concentrations and percentile (RA percentile) value for each biomarker.
The VECTRA DA MBDA test uses Meso Scale Discovery (MSD, Gaithersburg, Md., USA) sandwich immunoassay electrochemiluminescent technology to measure biomarker levels. Eastman et al., J. of Pharmaceutical and Biomedical Analysis 70: 415-424 (2012). In the immunoassay, capture antibodies are spotted on carbon electrodes in a planar array and detection antibodies are labeled with an electrochemiluminescent ruthenium reporter. Id. Upon electrical stimulation, light is produced from reporter molecules bound to the electrode to determine biomarker concentration.

[2] = test system: Rheumatoid arthritis patients; experiment: Change in VECTRA DA Score after treatment (Example 2); format: in vivo, human; settings: Patient 6; treatment August 2012-June 2013; score February 2013
Text: as §1, with “biomarker. […]” for “biomarker.”
(§2) The patients were treated with the selected treatment methods for at least five months and the post-treatment biomarker levels and VECTRA DA Score were determined by VECTRA® DA test along with CRP level and ESR. The change is VECTRA DA Score, CRP level and ESR was determined to determine the change in disease activity and effectiveness of the selected treatment method.

YKL-40 = settings: literature 1990-2012, ACR abstracts 2006-2013; cited from earlier work
IL-6 = settings: literature 1990-2012, ACR abstracts 2006-2013; cited from earlier work
[3] = test system: Rheumatoid arthritis patients; experiment: Change in VECTRA DA Score after treatment, longer duration (Example 3); format: in vivo, human
Description: Sixteen rheumatoid arthritis patients were selected for treatment by treatment methods that were selected using the algorithm disclosed herein. Some patients were the same as the patients discussed under Example 2. Example 3, however, tracks patients' responses to treatment for a longer duration and uses VECTRA DA Score to determine effectiveness of the treatment.
VECTRA® DA test was conducted for each patient to determine serum levels of the all the biomarkers and VECTRA DA Score in each patient before treatment. The collection of patients closely resembles the random patient population available nationwide as shown by a comparison of the distribution of VECTRA DA Scores in FIG. 6, as noted under Example 2.
The patients were treated with the selected treatment methods and the post-treatment biomarker levels and VECTRA DA Score were determined by VECTRA® DA test. The change is VECTRA DA Score was determined to determine the change in disease activity and effectiveness of the selected treatment method.
The treatment method (one method or a combination of methods) was determined to be effective when the post-treatment disease activity was lower than the pre-treatment disease activity in the patient: when VECTRA DA Score was lower than the pre-treatment VECTRA DA Score. Specifically, the treatment method was determined to be effective when the post-treatment disease activity was at least 20% lower than the pre-treatment disease activity, or when the VECTRA DA Score is decreased to a lower disease activity level after the treatment (i.e., from high to moderate, or high to low, or moderate to low).

TNFR1 = test system: TNFR1; design: key: Y: biomarkers that are known to be positively affected by a treatment method (i.e., biomarkers that are known to have a favorable response to a treatment method); N: biomarkers that are not known to be positively affected by a treatment method (i.e., biomarkers that are known to have an unfavorable response to a treatment method); biomarkers that are known to be positively affected by a ORENCIA, the brand name of Atabacept; settings: literature 1990-2012, ACR abstracts 2006-2013; cited from earlier work
Leptin = settings: literature; Leptin usable as biomarker only in patients with 15% or less body fat; cited from earlier work
[4] = test system: Rheumatoid arthritis patients; experiment: Treatment outcome (effectiveness, clinical course) of treatment methods (Example 2); format: in vivo, human; settings: Patient 9; ACTEMRA from May 2012 not algorithm-selected; MTX added October 2012, based on ESR and CRP level
Description: as §2

VEGF-A = settings: literature 1990-2012, ACR abstracts 2006-2013; cited from earlier work
VCAM-1 = settings: literature 1990-2012, ACR abstracts 2006-2013; cited from earlier work
MMP-1 = settings: literature 1990-2012, ACR abstracts 2006-2013; cited from earlier work
Resistin = settings: literature 1990-2012, ACR abstracts 2006-2013; cited from earlier work
MMP-3 = settings: literature 1990-2012, ACR abstracts 2006-2013; cited from earlier work
[5] = test system: Rheumatoid arthritis patients; format: in vivo, human
Text: A treatment method administered to a patient may be a combination of one or more treatment methods.

## Tocilizumab [TOCL]
CRP
  CRP positively affected by treatment method: Y
SAA
  SAA positively affected by treatment method: Y
[1]; Patient 6, February 2013
  IL-6 elevated level: >99%
  MMP-3 elevated level: 61%
  Resistin elevated level: 70%
[1]; Patient 6, October 2012
  IL-6 elevated level: >99%
  MMP-3 elevated level: 88%
  Resistin elevated level: 57%
  TNF-R1 elevated level: 45%
[2]
  VECTRA DA Score - Decreased by: Decreased by 24
YKL-40
  YKL-40 positively affected by treatment method: Y
IL-6
  IL-6 positively affected by treatment method: Y
[3]; Patient 6, February 2013
  Arthritis activity class of VECTRA DA Score: high (a VECTRA DA Score of >44 reflects high disease activity)
[3]; Patient 6, October 2012
  Arthritis activity class of VECTRA DA Score: high (a VECTRA DA Score of >44 reflects high disease activity)
[3]; Patient 6, October 2012, ACTEMRA 4 mg/kg
  VECTRA DA Score: 54
TNFR1
  TNFR1 positively affected by treatment method: N
Leptin
  Leptin positively affected by treatment method: N
[4]
  Treatment Outcome: Not effective
VEGF-A
  VEGF-A positively affected by treatment method: Y
VCAM-1
  VCAM-1 positively affected by treatment method: N
MMP-1
  MMP-1 positively affected by treatment method: Y
Resistin
  Resistin positively affected by treatment method: N
MMP-3
  MMP-3 positively affected by treatment method: Y
[5]; Patient 6
  Treatment Outcome: Effective, based
[5]; Patient 6, while on ACTEMRA
  Conventional markers of inflammation - ESR and CRP level: normalized
[5]; in vivo
  Adverse reaction: allergic reaction
  Toxicity for which the treatment was excluded: bone marrow

From patent US9387246B2, “Treatment methods for rheumatoid arthritis” (priority 2013, dated 2016)
